Read-outs that look alike come from different tables or passages of the source.
Columns and labels:
[1] = target: Beta Secretase enzyme (BACE) (Homo sapiens, UniProt P56817); assay: In vitro enzymatic BACE FRET (fluorescence resonance energy transfer) assay; format: biochemical;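 also: fluorescence read after 1 h with 50 nM quenched peptide substrate spanning the BACE cleavage site, in pH 4.2 acetate buffer containing 10% DMSO and nonionic detergent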
[2] = test system: Aβ40 in conditioned medium of cells stably expressing Amyloid Precursor Protein (APP); assay: In vitro BACE cell-based assay (Aβ40 in conditioned medium, sandwich ELISA); conditions: Homo sapiens;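 also: compounds added as a dilution series, secreted peptide quantified by europium time-resolved fluorescence readout, potency fitted from percent of control versus compound concentration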
CYP3A4 (CYP3A) = CYP3A4 (CYP3A) (Homo sapiens, UniProt P08684); assay: in vitro; conditions: microsomes, pH 7.4;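 also: inhibition of CYP3A-mediated 1-hydroxymidazolam formation after 10 min incubation with NADPH, quantified by HPLC MS relative to metabolite produced without test compound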
Sequence of CYP3A4 (CYP3A) (P08684 2-503): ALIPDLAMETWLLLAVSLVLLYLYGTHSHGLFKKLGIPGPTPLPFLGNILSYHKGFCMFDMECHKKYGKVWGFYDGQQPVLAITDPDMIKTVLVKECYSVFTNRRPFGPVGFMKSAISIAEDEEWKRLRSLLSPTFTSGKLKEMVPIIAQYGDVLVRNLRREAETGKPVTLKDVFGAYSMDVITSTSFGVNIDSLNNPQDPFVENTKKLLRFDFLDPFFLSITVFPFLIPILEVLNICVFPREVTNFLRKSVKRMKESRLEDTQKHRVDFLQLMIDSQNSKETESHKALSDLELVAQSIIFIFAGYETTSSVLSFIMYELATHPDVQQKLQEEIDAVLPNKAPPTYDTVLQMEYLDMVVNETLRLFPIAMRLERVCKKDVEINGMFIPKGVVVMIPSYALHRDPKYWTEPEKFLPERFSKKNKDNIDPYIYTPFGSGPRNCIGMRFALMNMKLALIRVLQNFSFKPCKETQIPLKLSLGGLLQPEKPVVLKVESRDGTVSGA

[3] = Microsomal stability assay, rat liver microsomes;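 also: rat liver microsomes (0.25 mg/mL) with about 1 µM compound plus 1 mM NADPH, pH 7.4, 37 °C for 30 min, parent left measured by LC-MS/MS against 0 min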
[4] = Microsomal stability assay, human liver microsomes;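 also: pooled human liver microsomes at 0.25 mg/mL with 1 µM compound and NADPH at 37 °C, pH 7.4, for 30 min, unchanged parent quantified by LC-MS/MS against the 0 min sample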
CYP2D6 = CYP2D6 (Homo sapiens, UniProt P10635); assay: CYP2D6 inhibition assay (bufuralol, pooled human liver microsomes)
Sequence of CYP2D6 (P10635 whole entry): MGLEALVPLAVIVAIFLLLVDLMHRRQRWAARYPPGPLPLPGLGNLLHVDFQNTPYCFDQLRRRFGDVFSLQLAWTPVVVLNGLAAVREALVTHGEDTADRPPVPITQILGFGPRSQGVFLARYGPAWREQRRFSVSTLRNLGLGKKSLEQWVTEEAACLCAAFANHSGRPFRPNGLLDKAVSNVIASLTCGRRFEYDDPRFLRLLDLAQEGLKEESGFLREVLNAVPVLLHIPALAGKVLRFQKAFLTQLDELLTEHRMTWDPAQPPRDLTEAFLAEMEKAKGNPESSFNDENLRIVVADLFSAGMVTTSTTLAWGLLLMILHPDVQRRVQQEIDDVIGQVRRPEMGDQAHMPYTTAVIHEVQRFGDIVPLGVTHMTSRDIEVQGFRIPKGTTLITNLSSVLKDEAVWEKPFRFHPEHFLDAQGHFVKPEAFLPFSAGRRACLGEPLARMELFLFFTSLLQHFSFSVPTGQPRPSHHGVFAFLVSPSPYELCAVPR

[5] = BACE enzyme assay, IC50's in uM, read-out: BACE1 FRET assay
[6] = HEK293, HEK cell-based assay, IC50's in uM, read-out: HEK cell assay
[7] = 2D6 IC50 (uM), CYP enzyme inhibition
[8] = BACE enzyme assay IC50, read-out: BACE1 FRET assay
[9] = HEK293, HEK cell-based assay IC50, read-out: HEK cell assay
[10] = 2D6 IC50 (uM), CYP2D6 inhibition
[11] = BACE enzyme assay, read-out: BACE1 FRET assay
[12] = HEK293, HEK cells, read-out: HEK cell assay
[13] = HEK293, cell-based assay, HEK cells, IC50's in uM, read-out: HEK cell assay
[14] = 2D6 IC50, CYP enzyme inhibition
[15] = read-out: BACE1 FRET assay (IC50)
[16] = HEK293, HEK cells, read-out: HEK cell assay (IC50)

Sequence of Beta Secretase enzyme (BACE) (P56817 46-501): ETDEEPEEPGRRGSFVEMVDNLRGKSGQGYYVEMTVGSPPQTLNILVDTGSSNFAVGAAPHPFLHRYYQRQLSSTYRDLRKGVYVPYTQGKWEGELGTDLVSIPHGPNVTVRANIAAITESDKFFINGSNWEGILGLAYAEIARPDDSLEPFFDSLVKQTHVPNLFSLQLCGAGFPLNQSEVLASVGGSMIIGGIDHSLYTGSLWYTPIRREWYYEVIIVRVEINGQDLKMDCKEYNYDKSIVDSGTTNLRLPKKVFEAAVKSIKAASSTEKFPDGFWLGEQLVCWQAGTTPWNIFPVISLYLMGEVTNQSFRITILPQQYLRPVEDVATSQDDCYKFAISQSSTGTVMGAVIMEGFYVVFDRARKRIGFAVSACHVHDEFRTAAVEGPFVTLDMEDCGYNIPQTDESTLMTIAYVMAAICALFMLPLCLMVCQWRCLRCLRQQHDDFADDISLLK

| Compound | IC50 [1, 5] | IC50 (CYP3A4 (CYP3A)) | RLM ([3]; rat liver microsomal data) | HLM ([4]; human liver microsomal data) | IC50 (CYP2D6; [7]) | RLM ([3]; rat liver microsomes) | HLM ([4]; human liver microsomes) | also measured |
| --- | --- | --- | --- | --- | --- | --- | --- | --- |
| COCC(=O)N[C@@H](Cc1cc(F)cc(-c2nccs2)c1)[C@H](O)CN[C@H]1CC2(CCC2)Oc2ccc(CC(C)C)cc21 [compound 771, N-((1S,2R)-1-(3-fluoro-5-(1,3-thiazol-2-yl)benzyl)-2-hydroxy-3-(((4S)-6-(2-methylpropyl)-3,4-dihydrospiro[chromene-2,1′-cyclobutan]-4-yl)amino)propyl)-2-methoxyacetamide] | 0.005 µM | 700 nM | 201 µL/min/mg | 150 µL/min/mg | 0.5 µM |  |  | IC50 [2, 6]: 0.04 µM |
| COCC(=O)N[C@@H](Cc1cc(F)cc(F)c1)[C@H](O)CN[C@H]1CC(C)(C)Oc2c1cc(Br)c1c2OCO1 [compound 746] |  | 200 nM |  |  |  | 144 µL/min/mg | 150 µL/min/mg | IC50 [1, 8]: 0.275 µM; IC50 [2, 9]: 0.185 µM; IC50 (CYP2D6; [10]): 3.8 µM |
| CCO[C@@H](C)C(=O)N[C@@H](Cc1ccc2c(c1)OCO2)[C@H](O)CN[C@H]1CC2(CCC2)Oc2ncc(CC(C)C)cc21 [compound 809] | 0.269 µM | 200 nM | 117 µL/min/mg | 33 µL/min/mg | 6.7 µM |  |  | IC50 [2, 6]: 0.513 µM |
| COCC(=O)N[C@@H](Cc1cc(F)cc(F)c1)[C@H](O)CN[C@H]1CC2(CCC2)Oc2c(-c3cncs3)cc(CC(C)C)cc21 [compound 490] |  | 200 nM | 249 µL/min/mg | 344 µL/min/mg | 7.5 µM |  |  | IC50 [1, 11]: 0.003 µM; IC50 [2, 12]: 0.029 µM |
| CO[C@H](C)C(=O)N[C@@H](Cc1cc(F)cc(Cl)c1)[C@H](O)CN[C@H]1CC2(CCC2)Oc2cnc(CC(C)(C)F)cc21 [compound 719] |  | 400 nM |  |  |  | 775 µL/min/mg | 515 µL/min/mg | IC50 [1, 8]: 0.024 µM; IC50 [2, 9]: 0.13 µM; IC50 (CYP2D6; [10]): 2.4 µM |
| CO[C@H](C)C(=O)N[C@@H](Cc1cc(F)cc(-c2nccs2)c1)[C@H](O)CN[C@H]1CC2(CCC2)Oc2ncc(CC(C)(C)F)cc21 [compound 742] |  | 700 nM |  |  |  | 42 µL/min/mg | 39.5 µL/min/mg | IC50 [1, 8]: 0.084 µM; IC50 [2, 9]: 0.045 µM; IC50 (CYP2D6; [10]): 0.95 µM |
| COCC(=O)N[C@@H](Cc1cc(Br)cc(-c2nccs2)c1)[C@H](O)CN[C@H]1CC2(CCC2)Oc2ncc(CC(C)(C)C)cc21 [compound 851] | 0.013 µM | 200 nM | 59 µL/min/mg | 71 µL/min/mg |  |  |  | IC50 [2, 13]: 0.057 µM; IC50 (CYP2D6; [14]): 0.7 µM |
| CO[C@H](C)C(=O)N[C@@H](Cc1cc(F)cc(F)c1)[C@H](O)CN[C@H]1CC2(CCC2)Oc2c1cc(CC(C)C)nc2-c1nccn1C [compound 704] |  | ≤ 30 nM |  |  |  | 44 µL/min/mg | 20 µL/min/mg | IC50 [1, 8]: 0.03 µM; IC50 [2, 9]: 0.024 µM; IC50 (CYP2D6; [10]): ≥ 27 µM |
| CC(=O)N[C@@H](Cc1cccc(F)c1)[C@H](O)CN[C@H]1CC2(CCC2)Oc2c1cc(CC(C)(C)C)nc2-c1ccncc1 [compound 532] |  | 200 nM | 91 µL/min/mg | 40 µL/min/mg | 2.6 µM |  |  | IC50 [1, 11]: 0.012 µM; IC50 [2, 12]: 0.022 µM |
| CO[C@H](C)C(=O)N[C@@H](Cc1cncs1)[C@H](O)CN[C@H]1CC2(CCC2)Oc2ncc([C@@H]3CC3(C)C)cc21 [compound 794] | 0.005 µM | 500 nM | 132 µL/min/mg | 205 µL/min/mg | 9.8 µM |  |  | IC50 [2, 6]: 0.009 µM |
| COCC(=O)N[C@@H](Cc1cccc(-c2nccs2)c1)[C@H](O)CN[C@H]1CC2(CCC2)Oc2ncc(C3CCCC3)cc21 [compound 886] | 0.143 µM | 200 nM | 64 µL/min/mg | 55 µL/min/mg |  |  |  | IC50 [2, 13]: 0.136 µM; IC50 (CYP2D6; [14]): 0.3 µM |
| Cc1nc(CN2CCO[C@@H](C(=O)N[C@@H](Cc3ccc(F)cc3)[C@H](O)CN[C@H]3CC4(CCC4)Oc4ncc(CC(C)(C)C)cc43)C2)cs1 [compound 755] | 0.012 µM | 300 nM | 191 µL/min/mg | 522 µL/min/mg | 3.3 µM |  |  | IC50 [2, 6]: 0.007 µM |
| C#Cc1cc(F)cc(C[C@H](NC(=O)COC)[C@H](O)CN[C@H]2CC3(CCC3)Oc3ncc(CC(C)C)cc32)c1 [Example 856, N-((1S,2R)-1-(3-ethynyl-5-fluorobenzyl)-2-hydroxy-3-(((4′S)-6′-(2-methylpropyl)-3′,4′-dihydrospiro[cyclobutane-1,2′-pyrano[2,3-b]pyridin]-4′-yl)amino)propyl)-2-methoxyacetamide] | 0.002 µM | 150 nM | 78 µL/min/mg | 63 µL/min/mg |  |  |  | IC50 [2, 13]: 0.009 µM; IC50 (CYP2D6; [14]): 1 µM |
| COCC(=O)N[C@@H](Cc1cccc(-c2nccs2)c1)[C@H](O)CN[C@H]1CC2(CCC2)Oc2ncc(CC(C)C)cc21 [Example 757, N-((1S,2R)-2-hydroxy-3-(((4′S)-6′-(2-methylpropyl)-3′,4′-dihydrospiro[cyclobutane-1,2′-pyrano[2,3-b]pyridin]-4′-yl)amino)-1-(3-(1,3-thiazol-2-yl)benzyl)propyl)-2-methoxyacetamide] | 0.007 µM | 250 nM | 60 µL/min/mg | 60 µL/min/mg | 0.45 µM |  |  | IC50 [2, 6]: 0.018 µM |
| COCC(=O)N[C@@H](Cc1cccc(F)c1)[C@H](O)CN[C@H]1CC2(CCC2)Oc2c1cc(C=C(C)C)cc2-n1ccnc1 [compound 589] |  | 200 nM |  |  |  | 217 µL/min/mg | 27 µL/min/mg | IC50 [1, 15]: 0.257 µM; IC50 [2, 16]: 0.105 µM; IC50 (CYP2D6; 2D6 IC50, CYP2D6 inhibition): 0.2 µM |
| CC(=O)N[C@@H](Cc1ccc(F)cc1)[C@H](O)CN[C@H]1CC2(CCC2)Oc2c1cc(CC(C)(C)C)nc2Nc1ccccc1 [compound 610] |  | ≥ 27000 nM |  |  |  | 213 µL/min/mg | 102 µL/min/mg | IC50 [1, 15]: 0.199 µM; IC50 [2, 16]: > 10 µM; IC50 (CYP2D6; 2D6 IC50, CYP2D6 inhibition): ≥ 27 µM |
| CC(=O)N[C@@H](Cc1ccc(F)c(-c2cccnc2)c1)[C@H](O)CN[C@H]1CC2(CCC2)Oc2ccc(CC(C)(C)C)cc21 [compound 648] |  | 100 nM |  |  |  | 560 µL/min/mg | 551 µL/min/mg | IC50 [1, 15]: 0.008 µM; IC50 [2, 16]: 0.045 µM; IC50 (CYP2D6; 2D6 IC50, CYP2D6 inhibition): 0.4 µM |
| COCC(=O)N[C@@H](Cc1cccc(F)c1)[C@H](O)CN[C@H]1CC2(CCC2)Oc2c1cc(CC(C)(C)F)cc2-n1ccnc1 [compound 588] |  | 100 nM |  |  |  | 74 µL/min/mg | 25 µL/min/mg | IC50 [1, 15]: 0.027 µM; IC50 [2, 16]: 0.006 µM; IC50 (CYP2D6; 2D6 IC50, CYP2D6 inhibition): 0.6 µM |
| CO[C@H](C)C(=O)N[C@@H](Cc1ccc(F)cc1)[C@H](O)CN[C@H]1CC2(CCC2)Oc2c1cc(CC(C)C)cc2-n1ccnc1 [compound 482] |  | 100 nM | 194 µL/min/mg | 27 µL/min/mg |  |  |  | IC50 ([1]; Table 2, read-out: BACE1 FRET assay): 0.15 µM; IC50 ([2]; HEK293, Table 2, HEK cells, read-out: HEK cell assay): 0.422 µM; IC50 (CYP2D6; [14]): 3.6 µM |
| COCC(=O)N[C@@H](Cc1ccc(F)cc1)[C@H](O)CN[C@H]1CC2(CCC2)Oc2c(-c3cnc[nH]3)cc(CC(C)C)cc21 [compound 513] |  | 200 nM | 82 µL/min/mg | 143 µL/min/mg | 2.5 µM |  |  | IC50 [1, 11]: 0.088 µM; IC50 [2, 12]: 0.013 µM |

— patent publication US8163909B2, “Substituted hydroxyethyl amine compounds as beta-secretase modulators and methods of use” (Amgen Inc., priority 2007, dated 2012)
